# Measured values taken from patent publication US6881741B2 (ViroChem Pharma Inc., priority 2001, dated 2005).
# Read-outs that look alike come from different tables or passages of the source.
# Target: recombinant HCV NS5B (HCV RNA-dependent RNA polymerase) (Hepatitis C virus genotype 1b, UniProt P26663)
# Assay: biochemical
# [1] = related polymerase activity (Example 27 list), read-out: IC50
# [2] = HCV polymerase activity, list of compounds of Example 27, read-out: IC50 (polymerase activity)
# recombinant HCV NS5B (HCV RNA-dependent RNA polymerase), sequence (P26663 2420-3010 limits assumed): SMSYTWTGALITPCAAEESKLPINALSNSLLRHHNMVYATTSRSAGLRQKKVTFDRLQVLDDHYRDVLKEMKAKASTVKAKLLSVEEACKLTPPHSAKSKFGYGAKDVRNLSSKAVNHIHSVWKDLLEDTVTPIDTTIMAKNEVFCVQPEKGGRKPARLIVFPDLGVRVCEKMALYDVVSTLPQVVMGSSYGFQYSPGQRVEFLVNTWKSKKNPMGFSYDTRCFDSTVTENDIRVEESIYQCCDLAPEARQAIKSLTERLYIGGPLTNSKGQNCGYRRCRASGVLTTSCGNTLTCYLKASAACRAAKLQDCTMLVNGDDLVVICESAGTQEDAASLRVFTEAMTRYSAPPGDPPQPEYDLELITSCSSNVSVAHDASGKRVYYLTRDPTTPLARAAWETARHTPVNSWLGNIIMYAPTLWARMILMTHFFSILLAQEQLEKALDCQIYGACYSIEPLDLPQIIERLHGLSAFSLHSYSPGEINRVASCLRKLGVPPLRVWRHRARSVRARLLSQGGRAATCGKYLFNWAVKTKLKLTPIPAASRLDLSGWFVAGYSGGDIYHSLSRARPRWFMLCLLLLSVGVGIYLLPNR
Compound,IC50 [1] [µM],IC50 [2] [µM]
"CCc1ccc(-c2cc(NS(=O)(=O)c3ccccc3C)c(C(=O)O)s2)cc1 [Compound 232, 5-(4-ETHYL-PHENYL)-3-(TOLUENE-2-SULFONYLAMINO)-THIOPHENE-2-CARBOXYLIC ACID]",< 5,
"O=C(O)c1sc(-c2ccccc2)cc1NS(=O)(=O)c1cc(Cl)c(O)c(Cl)c1 [Compound 169, 3-(3,5-DICHLORO-4-HYDROXY-BENZENESULFONYLAMINO)-5-PHENYL-THIOPHENE-2-CARBOXYLIC ACID]",5 to 20,
"CC1CCC(C(=O)N(c2cc(-c3ccccc3)sc2C(=O)O)C(C)C)C(O)C1 (centres unmarked) [Compound 409, 3-[(2-HYDROXY-4-METHYL- CYCLOHEXANECARBONYL)-ISOPROPYL- AMINO]-5-PHENYL-THIOPHENE-2- CARBOXYLIC ACID]",,< 5
"CN(C(=O)c1sc2ccccc2c1Cl)c1cc(-c2ccccc2)sc1C(=O)O [Compound 256, 3-[(3-CHLORO-BENZO[B]THIOPHENE-2-CARBONYL)-METHYL-AMINO]-5-PHENYL-THIOPHENE-2-CARBOXYLIC ACID]",5 to 20,
"CC(C(=O)O)N(C(=O)c1ccc(Cl)cc1Cl)c1cc(-c2ccccc2)sc1C(=O)O (centres unmarked) [Compound 299, 3-[(1-CARBOXY-ETHYL)-(2,4-DICHLORO- BENZOYL)-AMINO]-5-PHENYL- THIOPHENE-2-CARBOXYLIC ACID]",< 5,
"CC(=O)c1cc(-c2cc(NS(=O)(=O)c3ccc(C)cc3C)c(C(=O)O)s2)cs1 [Compound 367, 5′-ACETYL-4-(2,4-DIMETHYL- BENZENESULFONYLAMINO)- [2,3′]BITHIOPHENYL-5-CARBOXYLIC ACID]",< 5,
"Cc1ccc(C(=O)N(C)c2cc(-c3ccccc3C)sc2C(=O)O)cc1 [Compound 267, 3-[METHYL-(4-METHYL-BENZOYL)-AMINO]-5-O-TOLYL-THIOPHENE-2-CARBOXYLIC ACID]",< 5,
"CC(=O)c1ccc(-c2cc(N(C(=O)C3CCC(C)CC3)C(C)C)c(C(=O)O)s2)cc1 (centres unmarked) [Compound 460, 5-(4-ACETYL-PHENYL)-3-[ISOPROPYL-(4- METHYL-CYCLOHEXANECARBONYL)- AMINO]-THIOPHENE-2-CARBOXYLIC ACID]",,< 5
"CC(C)N(C(=O)c1ccc(C(F)(F)F)cc1F)c1cc(-c2ccccc2)sc1C(=O)O [Compound 326, 3-[(2-FLUORO-4-TRIFLUOROMETHYL- BENZOYL)-ISOPROPYL-AMINO]-5- PHENYL-THIOPHENE-2-CARBOXYLIC ACID]",< 5,
"CC(=O)c1ccc(-c2cc(NS(=O)(=O)c3ccccc3C)c(C(=O)O)s2)cc1 [Compound 166, 5-(4-ACETYL-PHENYL)-3-(TOLUENE-2-SULFONYLAMINO)-THIOPHENE-2-CARBOXYLIC ACID]",< 5,
"O=C(O)c1sc(-c2ccccc2)cc1NS(=O)(=O)c1ccc(C(F)(F)F)cn1 [Compound 98, 5-PHENYL-3-(5-TRIFLUOROMETHYL-PYRIDINE-2-SULFONYLAMINO)-THIOPHENE-2-CARBOXYLIC ACID]",5 to 20,
"CC([C@H](O[Si](C)(C)C(C)(C)C)c1ccccc1)N(C(=O)c1ccc(Cl)cc1Cl)c1cc(-c2ccccc2)sc1C(=O)O (stereo in doubt) [Compound 556, 3-[[2-(TERT-BUTYL-DIMETHYL- SILANYLOXY)-1-METHYL-2-PHENYL- ETHYL]-(2,4-DICHLORO-BENZOYL)- AMINO]-5-PHENYL-THIOPHENE-2- CARBOXYLIC ACID]",,5 to 20
"CCC(=O)N(Cc1cccc(OC)c1)c1cc(-c2ccccc2)sc1C(=O)O [Compound 471, 3-[(3-METHOXY-BENZYL)-PROPIONYL- AMINO]-5-PHENYL-THIOPHENE-2- CARBOXYLIC ACID]",,> 20
"O=C(O)c1sc(-c2ccccc2)cc1N(Cc1ccccc1)C(=O)CC1CCCC1 [Compound 487, 3-[BENZYL-(2-CYCLOPENTYL-ACETYL)- AMINO]-5-PHENYL-THIOPHENE-2- CARBOXYLIC ACID]",,< 5
"Cc1ccccc1S(=O)(=O)Nc1cc(-c2cccc(OC(F)(F)F)c2)sc1C(=O)O [Compound 81, 3-(TOLUENE-2-SULFONYLAMINO)-5-(3-TRIFLUOROMETHOXY-PHENYL)-THIOPHENE-2-CARBOXYLIC ACID]",5 to 20,
"CCC(=O)N(Cc1ccc(C(C)(C)C)cc1)c1cc(-c2ccccc2)sc1C(=O)O [Compound 417, 3-[(4-TERT-BUTYL-BENZYL)-PROPIONYL- AMINO]-5-PHENYL-THIOPHENE-2- CARBOXYLIC ACID]",,5 to 20
"Cc1cccc(-c2cc(N(C(=O)c3ccc(C)cc3O)C(C)C)c(C(=O)O)s2)c1 [Compound 502, 3-[(2-HYDROXY-4-METHYL-BENZOYL)- ISOPROPYL-AMINO]-5-#M!-TOLYL- THIOPHENE-2-CARBOXYLIC ACID]",,< 5
"Cc1ccccc1S(=O)(=O)Nc1cc(-c2ccccc2)sc1C(=O)O [Compound 15, 5-PHENYL-3-(TOLUENE-2-SULFONYLAMINO)-THIOPHENE-2-CARBOXYLIC ACID]",> 20,
"CC(C)(C)c1ccc(S(=O)(=O)Nc2cc(-c3ccccc3)sc2C(=O)O)cc1 [Compound 32, 3-(4-TERT-BUTYL-BENZENESULFONYLAMINO)-5-PHENYL-THIOPHENE-2-CARBOXYLIC ACID]",5 to 20,
"CCC(C)N(C(=O)c1ccc(Cl)cc1Cl)c1cc(-c2ccccc2)sc1C(=O)O (centres unmarked) [Compound 261, 3-[SEC-BUTYL-(2,4-DICHLORO-BENZOYL)-AMINO]-5-PHENYL-THIOPHENE-2-CARBOXYLIC ACID]",< 5,
"CCCC(=O)N(CC)c1cc(-c2ccccc2)sc1C(=O)O [Compound 493, 3-(BUTYRYL-ETHYL-AMINO)-5-PHENYL- THIOPHENE-2-CARBOXYLIC ACID]",,5 to 20
"Cc1ccc(C(=O)N(C)c2cc(-c3cccc(N)c3)sc2C(=O)O)cc1 [Compound 271, 5-(3-AMINO-PHENYL)-3-[METHYL-(4-METHYL-BENZOYL)-AMINO]-THIOPHENE-2-CARBOXYLIC ACID]",5 to 20,
"CC(C)N(C(=O)c1ccc(Cl)cc1)c1cc(-c2ccccc2)sc1C(=O)O [Compound 210, 3-[(4-CHLORO-BENZOYL)-ISOPROPYL-AMINO]-5-PHENYL-THIOPHENE-2-CARBOXYLIC ACID]",< 5,
"CCCN(C(=O)c1ccc(C)cc1)c1cc(-c2cccc(CCC(=O)O)c2)sc1C(=O)O [Compound 325, 5-[3-(2-CARBOXY-ETHYL)-PHENYL]-3-[(4- METHYL-BENZOYL)-PROPYL-AMINO]- THIOPHENE-2-CARBOXYLIC ACID]",5 to 20,
"Cc1ccccc1S(=O)(=O)Nc1cc(-c2ccc(OC(F)(F)F)cc2)sc1C(=O)O [Compound 60, 3-(TOLUENE-2-SULFONYLAMINO)-5-(4-TRIFLUOROMETHOXY-PHENYL)-THIOPHENE-2-CARBOXYLIC ACID]",< 5,
"O=C(Nc1cc(-c2ccccc2)sc1C(=O)O)Oc1ccc(Cl)cc1 [Compound 33, 3-(4-CHLORO-PHENOXYCARBONYLAMINO)-5-PHENYL-THIOPHENE-2-CARBOXYLIC ACID]",5 to 20,
"Cc1ccc(C(=O)Nc2cc(-c3ccccc3)sc2C(=O)O)cc1 [Compound 92, 3-(4-METHYL-BENZOYLAMINO)-5-PHENYL-THIOPHENE-2-CARBOXYLIC ACID]",5 to 20,
"CC(C)(C)OC(=O)N1CCCC(N(C(=O)c2ccc(Cl)cc2Cl)c2cc(-c3ccccc3)sc2C(=O)O)CC1 (centres unmarked) [Compound 507, 4-[(2-CARBOXY-5-PHENYL-THIOPHEN-3- YL)-(2,4-DICHLORO-BENZOYL)-AMINO]- AZEPANE-1-CARBOXYLIC ACID TERT!- BUTYL ESTER]",,< 5
"O=C(O)c1sc(-c2ccccc2)cc1N(Cc1ccccc1Cl)C(=O)C1CCC1 [Compound 425, 3-[(2-CHLORO-BENZYL)- CYCLOBUTANECARBONYL-AMINO]-5- PHENYL-THIOPHENE-2-CARBOXYLIC ACID]",,5 to 20
